Data published in patent US20210138274A1, “ACCUMULATIVE BORON 10 MEDICINE FOR BORON NEUTRON CAPTURE THERAPY FOR SELECTIVELY OR LOCALLY TARGETING TUMOR TISSUES IN SHORT TIME” (HIROSAKI UNIVERSITY, priority 2018, published 2021).
“Also recorded” adds a separate entry of the source. Where no end group is shown, it is not given here. Side-chain parts run from the residue outwards. EMCS = N-(6-maleimidocaproyloxy)succinimide crosslinker

What was measured:
[1] = test system: tumor-bearing mice seeded in the thigh with murine bladder cancer cell strain MBT2; assay: Neutron irradiation test (tumor volume, hot group vs cold group); format: in vivo; conditions: 7 mg/kg tail vein, neutron irradiation 40 minutes after administration; for effect of reducing the tumor volume, hot group versus cold group: tumor volumes (mm^3) measured for 21 days, FIGS. 5, 6
Description: IF7-^10BPA was administered to the tail vein of tumor-bearing mice seeded in the thigh with murine bladder cancer cell strain MBT2 at a dosage amount of 7 mg/kg. Thereafter, tumor volumes (mm^3) thereof were measured for 21 days, with respect to a group (hot group), which was irradiated 40 minutes after the tail-vein administration with neutrons for 30 minutes under the following conditions and a group (cold group), which was not irradiated. In the drawing, * represents p<0.05.
(1) Neutron fluence (cm^−2·s^−1) 2.1E^+12 (2.1×10^12) to 4.6E^+12 (2) Physical dose (Gy) Thermal neutrons: 2.8E^−1 to 6.1E^−1 Epithermal neutrons: 3.0E^−2 to 6.5E^−2 Fast neutrons: 2.1E^−1 to 4.6E^−1 Gamma rays: 2.1E^−1 to 4.6E^−1 Total: 8.9E^−1 to 1.5E^0
Administration was performed in the same manner as in Example 5, except that IF7-^10BSH was administered instead of IF7-^10BPA. Thereafter, tumor volumes (mm^3) were measured for 21 days with respect to the hot group which was irradiated with neutrons 40 minutes after the administration and the cold group which was not irradiated.
IF7-^10BPA was administered to tail vein of the tumor-bearing mice seeded with murine bladder cancer cell strain MBT2 at a dosage amount of 7 mg/kg. Thereafter, tumor volumes (mm^3) were measured for 21 days with respect to a hot group which was irradiated with neutrons 40 minutes after the tail-vein administration and a cold group which was not irradiated.
The administration was performed in the same manner as in Example 7, except that 1BPA was administered instead of IF7-^10BPA, tumor volumes (mm^3) were measured for 21 days with respect to the hot group irradiated 40 minutes after the administration with neutrons and the cold group which was not irradiated.

[2] = test system: tumor-bearing mice seeded on the thigh with a murine bladder cancer cell MBT2; conditions: mouse, in vivo
Description: Tumor accumulation ability was tested in tumor-bearing mice (7 mm in tumor diameter) seeded on the thigh with a murine bladder cancer cell MBT2, with respect to IF7-^10BPA synthesized in Synthesis Example 1 above and IF7-^10BSH synthesized in Synthesis Example 2 above. 100 μL (175 μg) of IF7-^10BPA or IF7-^10BSH adjusted to 7 mg/kg was administered to the tail vein of the tumor-bearing mice. ^10B levels (ppm) in the organs of the tumor-bearing mice were measured 5, 10, and 20 minutes after the tail-vein administration by the PGA-method.
^10B levels in the respective organs of the tumor-bearing mice were measured in the same manner as in Example 1, except that the measurement was performed 40 minutes after the administration in addition to 5, 10 and 20 minutes, the number of n in the respective data was 3 or more, and the measurement results were indicated in violin plots.
^10B levels in the respective organs of the tumor-bearing mice were measured in the same manner as in Example 3, except that instead of IF7-^10BPA, [10B]boronophenylalanine (^10BPA) in the same concentration was administered. The results are indicated in violin plots in FIG. 3B.
^10B levels in the respective organs of the tumor-bearing mice were measured in the same manner as in Comparative Example 2, except that the concentration of ^10BPA was changed from 7 mg/kg to 100 mg/kg. […]

[3] = test system: tumor-bearing mice (murine bladder cancer cell MBT2); assay: Tumor accumulation ability test, Comparative Example 1 (^10B levels in organs, ICP-AES method); format: in vivo; conditions: FIG. 2
Description: Additionally, as Comparative Example 1, a tumor accumulation ability test was similarly performed using R-D-fructopyranose, 2′ position of which is esterified with [10B]boronophenylalanine group represented by the formula (a) (hereinafter, simply referred to as “^10BPA-fructose”). 100 μL (2,000 μg) of ^10BPA-fructose whose dosage amount was increased to 100 mg/kg was administered to the tail vein of tumor-bearing mice. ^10B levels (ppm) in the respective organs of the tumor-bearing mice were measured 20, 40, and 60 minutes after the tail-vein administration by ICP-AES method. FIG. 2 is a drawing indicating ^10B levels (ppm) in the organs of the tumor-bearing mice at 20, 40, and 60 minutes after tail-vein administration of 100 μL (2,000 μg) of ^10BPA-fructose.

| Substance | effect of reducing the tumor volume, hot group IF7-^10BPA (Example 7) versus hot group ^10BPA (Comparative Example 5) ([1]; 21 days, FIGS. 6A, 6B) | effect of reducing the tumor volume, hot group versus cold group [1] | ^10B level in the tumor compared with ^10BPA 100 mg/kg (Comparative Example 3) [2] | accumulation of ^10B in the tumor tissue ([3]; 100 mg/kg (100 μL, 2,000 μg) tail vein, 20, 40, and 60 minutes after the administration) | discrimination of the tumor tissue from the other organs (^10B levels) ([3]; 100 mg/kg tail vein, 20, 40, and 60 minutes) |
| --- | --- | --- | --- | --- | --- |
| IF7-^10BPA: peptide IFLLWQRCRR (SEQ ID NO: 2) crosslinked with EMCS between cysteine thiol and terminal amino group of a ^10B boronophenylalanine compound (IFLLWQRC([EMCS-(10B)boronophenylalanine])RR) | effect of reducing the tumor volume was greater | effect of reducing the tumor volume was pronounced; also recorded: more pronounced in the hot group | not inferior |  |  |
| IF7-^10BSH: peptide IFLLWQRKRR (SEQ ID NO: 3) crosslinked with EMCS between lysine amino group and thiol group of sodium [10B]borocaptate (IFLLWQRK([EMCS-sodium (10B)borocaptate])RR) |  | effect of reducing the tumor volume was pronounced |  |  |  |
| R-D-fructopyranose, 2′ position of which is esterified with [10B]boronophenylalanine group represented by the formula (a) [^10BPA-fructose] |  |  |  | did not accumulate at all in the tumor tissue | did not significantly discriminate the tumor tissue from the other organs |
